Article PMC6315694, “Synthesis of Pseudellone Analogs and Characterization as Novel T-type Calcium Channel Blockers” (Marine Drugs, 2018)
Like-named read-outs stand apart in the source and are kept apart here.

What was measured:
Type in all cases: cell-based
human CaV3.1 = molecular target: T1, human CaV3.1 (Homo sapiens, UniProt O43497); experiment: T-type calcium channel window current FLIPR assay, CaV3.1
T1 construct: expressed in transfected cells; host or cells: HEK 293T, transient transfection (FuGENE HD)
T1 sequence (O43497 whole entry): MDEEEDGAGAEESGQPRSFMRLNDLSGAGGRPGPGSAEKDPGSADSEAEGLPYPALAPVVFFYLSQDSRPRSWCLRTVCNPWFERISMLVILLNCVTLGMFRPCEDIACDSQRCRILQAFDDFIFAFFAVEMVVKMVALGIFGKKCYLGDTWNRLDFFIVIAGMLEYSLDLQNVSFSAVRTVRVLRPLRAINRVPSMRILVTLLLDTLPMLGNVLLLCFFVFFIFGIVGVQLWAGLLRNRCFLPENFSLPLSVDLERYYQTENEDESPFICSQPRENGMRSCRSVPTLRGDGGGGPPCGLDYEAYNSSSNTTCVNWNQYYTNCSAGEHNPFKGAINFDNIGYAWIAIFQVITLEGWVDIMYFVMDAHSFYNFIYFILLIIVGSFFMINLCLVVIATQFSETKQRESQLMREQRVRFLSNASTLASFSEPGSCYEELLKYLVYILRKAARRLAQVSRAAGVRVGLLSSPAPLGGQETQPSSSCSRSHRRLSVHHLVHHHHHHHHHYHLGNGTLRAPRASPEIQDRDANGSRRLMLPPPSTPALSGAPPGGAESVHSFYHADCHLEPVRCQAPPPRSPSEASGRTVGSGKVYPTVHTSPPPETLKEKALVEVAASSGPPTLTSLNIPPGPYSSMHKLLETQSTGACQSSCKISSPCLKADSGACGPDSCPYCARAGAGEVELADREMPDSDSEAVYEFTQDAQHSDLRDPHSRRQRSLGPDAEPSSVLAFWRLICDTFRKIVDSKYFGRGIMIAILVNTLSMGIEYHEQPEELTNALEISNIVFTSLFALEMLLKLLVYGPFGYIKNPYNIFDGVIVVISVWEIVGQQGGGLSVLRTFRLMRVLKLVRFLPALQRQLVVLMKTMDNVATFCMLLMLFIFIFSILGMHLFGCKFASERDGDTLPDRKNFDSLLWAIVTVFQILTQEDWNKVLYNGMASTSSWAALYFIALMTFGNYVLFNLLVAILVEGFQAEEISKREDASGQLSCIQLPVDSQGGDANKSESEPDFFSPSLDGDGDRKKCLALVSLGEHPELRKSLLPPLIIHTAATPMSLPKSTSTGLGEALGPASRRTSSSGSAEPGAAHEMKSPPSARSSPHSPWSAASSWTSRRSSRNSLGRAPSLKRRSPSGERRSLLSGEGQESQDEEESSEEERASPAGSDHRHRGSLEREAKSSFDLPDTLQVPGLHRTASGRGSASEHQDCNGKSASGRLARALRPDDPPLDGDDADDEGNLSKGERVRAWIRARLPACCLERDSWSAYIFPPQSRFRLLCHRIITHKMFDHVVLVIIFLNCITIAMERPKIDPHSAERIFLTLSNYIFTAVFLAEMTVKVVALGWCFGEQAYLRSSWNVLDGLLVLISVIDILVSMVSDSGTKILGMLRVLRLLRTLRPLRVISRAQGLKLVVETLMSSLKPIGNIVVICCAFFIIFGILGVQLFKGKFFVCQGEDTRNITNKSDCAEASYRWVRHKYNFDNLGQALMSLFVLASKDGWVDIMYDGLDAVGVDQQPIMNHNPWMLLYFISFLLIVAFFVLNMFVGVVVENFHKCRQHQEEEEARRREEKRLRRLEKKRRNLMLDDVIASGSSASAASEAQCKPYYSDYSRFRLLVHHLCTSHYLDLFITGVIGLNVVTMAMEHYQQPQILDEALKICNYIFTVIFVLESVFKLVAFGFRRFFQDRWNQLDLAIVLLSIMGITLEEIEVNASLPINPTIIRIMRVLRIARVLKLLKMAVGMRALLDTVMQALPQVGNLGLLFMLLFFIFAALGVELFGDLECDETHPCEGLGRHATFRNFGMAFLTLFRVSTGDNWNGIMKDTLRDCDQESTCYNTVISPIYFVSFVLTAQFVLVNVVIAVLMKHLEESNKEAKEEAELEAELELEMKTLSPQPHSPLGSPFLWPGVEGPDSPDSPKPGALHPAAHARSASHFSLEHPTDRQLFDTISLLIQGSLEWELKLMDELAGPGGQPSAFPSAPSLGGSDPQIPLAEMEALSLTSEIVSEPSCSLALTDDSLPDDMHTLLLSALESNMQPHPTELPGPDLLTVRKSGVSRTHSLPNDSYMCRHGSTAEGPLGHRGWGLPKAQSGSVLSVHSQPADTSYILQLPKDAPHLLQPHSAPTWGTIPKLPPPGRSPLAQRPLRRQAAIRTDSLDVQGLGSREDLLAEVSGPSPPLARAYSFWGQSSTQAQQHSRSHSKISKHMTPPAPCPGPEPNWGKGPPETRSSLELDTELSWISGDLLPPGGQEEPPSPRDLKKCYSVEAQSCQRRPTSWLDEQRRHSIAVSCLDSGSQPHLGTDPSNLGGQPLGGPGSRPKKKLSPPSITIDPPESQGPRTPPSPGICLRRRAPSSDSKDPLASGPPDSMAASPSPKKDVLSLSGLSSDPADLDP
Procedure: (§1) The human embryonic kidney 293 (HEK 293) cell lines (from Emmanuel Bourinet, Montpellier, France) stably expressing CaV3.2 or CaV3.3 were cultured under 5% carbon dioxide at 37 °C in Dulbecco’s Modified Eagle Medium (DMEM) Glutamax (Gibco, Life Technologies, Carlsbad, CA, USA) supplemented with 10% (v/v) fetal bovine serum (FBS), 100 U/mL penicillin, 100 μg/mL streptomycin (Gibco, Life Technologies), and 750 μg/mL geneticin (G418) (Gibco, Life Technologies). The Chinese Hamster Ovary (CHO) cell lines (Emmanuel Bourinet, Montpellier, France) expressing CaV3.1 were cultured under 5% carbon dioxide at 37 °C in Alpha Minimum Essential Media (MEM) Glutamax (Gibco, Life Technologies), supplemented with 10% (v/v) fetal bovine serum (FBS) and 300 μg/mL geneticin (G418) (Gibco, Life Technologies). The human neuroblastoma SH-SY5 Y cells (Victor Diaz, Goettingen, Germany) were cultured under 5% carbon dioxide at 37 °C in RPMI 1640 antibiotic-free medium (Invitrogen, Carlsbad, CA, USA), supplemented with 15% FBS and 2 mM GlutaMAX™ (Invitrogen). D-PBS (Gibco, Life Technologies) was used to wash the cells, and 0.25% Trypsin-EDTA (Gibco, Life Technologies) was used to detach cells from the flask surface. They were split in a ratio of 1:5 (ideally 1000 cells/cm^2) when they reached 70%–80% confluence (every 2–3 days). Transiently transfected CaV3.1HEK293 T cells were used in FLIPR Assays. HEK 293 T cells were cultured under 5% carbon dioxide at 37 °C in DMEM supplemented with 10% (v/v) FBS. D-PBS was used to wash the cells, and 0.25% Trypsin-EDTA was used to detach cells from the flask surface. The cells were split and seeded at 6 million cells per T175 flask, to reach 70%–80% confluence after 24 h. The next day, 12 μg DNA of human CaV3.1 was incubated in 900 μL serum-free DMEM with 36 μL FuGENE HD transfection reagent (Promega Corporation, Madison, WI, US) (1:3 DNA/Fugene ratio) for 20 min, and then the mixture was added into the cell flask slowly, drop by drop. After the transfection, the cells were cultured under 5% carbon dioxide at 37 °C for 24 h and then moved to a 28 °C incubator.
(§2) HEK 293 cells stably expressing CaV3.2 or CaV3.3 were seeded into 384-well black wall clear bottom plates (Corning, Lowell, MA, USA) at a density of 30,000 cells per well. Transiently transfected CaV3.1HEK293 T cells were seeded into 384-well black wall clear bottom plates at a density of 60,000 cells per well. Once the cells reached 90%–95% confluence after 24 h, the media were removed from the wells and replaced with 20 μL of 10% calcium 4 dye (Molecular Devices, Sunnyvale, CA, USA) in HBSS-HEPES (containing 5 mM KCl, 10 mM HEPES, 140 mM NaCl, 10 mM glucose, and 0.5 mM CaCl2, pH 7.4) with 0.1% bovine serum albumin (BSA). The cells were incubated for 30 min at 37 °C in the presence of 5% carbon dioxide. Each well on the reagent plates for the first addition contained 15 μL different concentrations of compounds dissolved in HBSS-HEPES containing 0.1% BSA and <0.1% DMSO and was incubated for 20 min after loading. Positive and negative controls contained 15 μL of HBSS-HEPES (0.1% BSA) alone. The plates were placed in the FLIPR^TETRA (Molecular Devices, Sunnyvale, CA, USA) programmed to measure maximum fluorescence intensity following a second addition of the agonist 5 mM CaCl2. The data acquisition parameters were adjusted as follows: Baseline fluorescence of 1500–2000 arbitrary fluorescence units (AFU), emission wavelength of 515–575 nm, and excitation wavelength of 470–495 nm. HBSS-HEPES (0.1% BSA) was used in the second addition as a negative control. One fluorescence reading was taken before the second addition. Then the fluorescence readings were recorded every two seconds for 300 s. Raw fluorescence readings in the form of relative light units were converted to response over baseline using ScreenWorks® (Molecular Devices, version 3.2.0.14) software.
(§3) Data were plotted and analyzed using GraphPad Prism v7.0 (GraphPad Software Inc., San Diego, CA, USA).

CaV3.3 = CaV3.3 (Homo sapiens, UniProt Q9P0X4); experiment: T-type calcium channel window current FLIPR assay, CaV3.3
Sequence of CaV3.3 (Q9P0X4 whole entry): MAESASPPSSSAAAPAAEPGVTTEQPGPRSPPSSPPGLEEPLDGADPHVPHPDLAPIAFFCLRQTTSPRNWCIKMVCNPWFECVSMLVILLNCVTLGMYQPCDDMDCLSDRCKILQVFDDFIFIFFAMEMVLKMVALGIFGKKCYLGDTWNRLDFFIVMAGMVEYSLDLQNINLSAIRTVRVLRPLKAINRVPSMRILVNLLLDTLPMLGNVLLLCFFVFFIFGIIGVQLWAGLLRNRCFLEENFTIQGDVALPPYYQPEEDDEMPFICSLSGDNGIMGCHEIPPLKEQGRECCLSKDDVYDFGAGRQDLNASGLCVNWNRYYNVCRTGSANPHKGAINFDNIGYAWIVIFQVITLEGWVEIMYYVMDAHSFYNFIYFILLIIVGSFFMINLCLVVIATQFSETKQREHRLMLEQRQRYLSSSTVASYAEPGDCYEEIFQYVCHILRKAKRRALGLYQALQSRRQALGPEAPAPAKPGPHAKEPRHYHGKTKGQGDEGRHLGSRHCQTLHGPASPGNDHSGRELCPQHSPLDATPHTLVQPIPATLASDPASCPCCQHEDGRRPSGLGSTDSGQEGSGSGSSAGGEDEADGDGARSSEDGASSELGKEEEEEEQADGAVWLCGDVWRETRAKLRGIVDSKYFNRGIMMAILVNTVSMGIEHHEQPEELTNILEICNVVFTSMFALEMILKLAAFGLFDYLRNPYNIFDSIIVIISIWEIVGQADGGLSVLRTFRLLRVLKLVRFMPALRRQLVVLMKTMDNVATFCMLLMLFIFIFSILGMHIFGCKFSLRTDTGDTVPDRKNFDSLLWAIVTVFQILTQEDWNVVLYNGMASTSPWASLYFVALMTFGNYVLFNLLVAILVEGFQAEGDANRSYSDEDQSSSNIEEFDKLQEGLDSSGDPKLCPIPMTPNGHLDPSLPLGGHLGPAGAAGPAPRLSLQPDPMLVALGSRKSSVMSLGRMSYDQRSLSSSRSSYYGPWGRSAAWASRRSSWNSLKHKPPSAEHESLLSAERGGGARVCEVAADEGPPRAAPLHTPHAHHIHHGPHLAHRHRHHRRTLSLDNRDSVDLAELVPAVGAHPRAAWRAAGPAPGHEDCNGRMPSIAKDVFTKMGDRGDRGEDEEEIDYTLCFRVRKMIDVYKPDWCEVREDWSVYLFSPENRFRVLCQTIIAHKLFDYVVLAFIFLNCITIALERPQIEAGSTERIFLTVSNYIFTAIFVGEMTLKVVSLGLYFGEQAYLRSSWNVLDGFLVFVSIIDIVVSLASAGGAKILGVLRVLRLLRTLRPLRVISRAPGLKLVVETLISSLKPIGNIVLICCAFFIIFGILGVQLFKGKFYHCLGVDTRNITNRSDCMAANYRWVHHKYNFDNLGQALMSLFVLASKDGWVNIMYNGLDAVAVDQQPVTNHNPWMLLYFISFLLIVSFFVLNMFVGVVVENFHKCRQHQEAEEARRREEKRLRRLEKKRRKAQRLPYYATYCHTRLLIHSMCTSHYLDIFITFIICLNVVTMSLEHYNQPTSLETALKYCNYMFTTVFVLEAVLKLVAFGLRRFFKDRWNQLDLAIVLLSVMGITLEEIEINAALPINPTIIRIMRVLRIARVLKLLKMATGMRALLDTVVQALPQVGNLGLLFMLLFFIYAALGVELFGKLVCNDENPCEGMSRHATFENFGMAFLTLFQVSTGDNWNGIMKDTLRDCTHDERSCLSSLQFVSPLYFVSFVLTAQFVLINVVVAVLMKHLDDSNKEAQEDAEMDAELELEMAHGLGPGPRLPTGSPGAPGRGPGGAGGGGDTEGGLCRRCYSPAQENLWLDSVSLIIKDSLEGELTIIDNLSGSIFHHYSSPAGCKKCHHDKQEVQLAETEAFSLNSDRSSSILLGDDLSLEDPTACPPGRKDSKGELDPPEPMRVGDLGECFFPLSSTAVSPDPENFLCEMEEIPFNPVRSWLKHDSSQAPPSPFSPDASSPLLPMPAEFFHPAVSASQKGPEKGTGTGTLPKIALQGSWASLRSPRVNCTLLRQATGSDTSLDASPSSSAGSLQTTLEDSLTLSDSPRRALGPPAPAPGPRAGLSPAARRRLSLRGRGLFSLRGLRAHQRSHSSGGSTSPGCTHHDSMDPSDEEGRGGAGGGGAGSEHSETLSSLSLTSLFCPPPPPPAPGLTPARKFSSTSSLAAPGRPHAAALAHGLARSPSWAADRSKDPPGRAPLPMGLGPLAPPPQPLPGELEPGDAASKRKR
Procedure: as §1, §2, §3

[1] = molecular target: T2, recombinant hCaV3.1 channels (Homo sapiens, UniProt O43497); experiment: Whole-cell patch-clamp QPatch 16 X, CaV3.1
T2 construct: host or cells: probably the CHO line expressing CaV3.1 (inferred: the transient HEK293T cells are assigned to FLIPR)
T2 sequence (O43497 whole entry): as the sequence (O43497 whole entry) above
Procedure: as §1, with “After the transfection, the cells were cultured under 5% carbon dioxide at 37 °C for 24 h and then moved to a 28 °C incubator.” left out
Data were plotted and analyzed using GraphPad Prism v7.0 (GraphPad Software Inc., San Diego, CA, USA). […]

COC(=O)[C@H](Cc1c[nH]c2ccccc12)NC(=O)C(C)(c1c[nH]c2ccccc12)c1c[nH]c2ccccc12 [Compound 3, Methyl (2,2-di(1H-indol-3-yl)propanoyl)-L-tryptophanate]
IC50 (human CaV3.1; FLIPR window current assay, transiently transfected HEK293T, N = 3, mean ± SEM, read-out: IC50 CaV3.1 (LVA CaVs)): 58.6 ± 2.62 µM | Emax (human CaV3.1; FLIPR, n = 3, read-out: Emax, inhibition for CaV3.1): 75.5% | IC50 (CaV3.3; FLIPR window current assay, HEK 293 stable, N = 3, mean ± SEM, read-out: IC50 CaV3.3 (LVA CaVs)): 3.81 ± 1.08 µM | IC50 (CaV3.3; FLIPR, representative curve, n = 4, read-out: IC50 of the representative concentration-response curve, CaV3.3 window current): 3.05 µM | Potency at CaV3.3 window current relative to potency at HVA CaVs (CaV3.3; FLIPR, CaV3.3 better than HVA CaVs): > 8 fold | Potency for CaV3.1-activated currents relative to CaV3.1 window currents ([1]; QPatch versus FLIPR, better for activated currents): > 7 fold | Emax ([1]; QPatch whole-cell, partial block, read-out: Emax value, block of CaV3.1 current): 82.8 ± 2.55% | Voltage-dependence of steady-state inactivation of CaV3.1, in words ([1]; QPatch, in the presence of compound): not significantly shifted
